The record followed here is ChEMBL document CHEMBL4184320, “Optimization of Selective Mitogen-Activated Protein Kinase Interacting Kinases 1 and 2 Inhibitors for the Treatment of Blast Crisis Leukemia” (J Med Chem, 2018).

SMILES strings stand for the structures. In brackets after ≈: the same amount, converted by molar mass. Activity calls are given as the source filed them. The calls are words filed in the database; no cut-off is given here.

A word on the inhibition: it is the percentage by which the read-out fell short of the control. What is called Papp A→B is how fast a substance crosses the layer from the apical side. Usually IC50 stands for the concentration that gives 50% inhibition. A word on the Cmax: it is the maximum level reached in the sampled fluid or tissue. Usually logD stands for the decadic logarithm of the distribution of all forms, ionised or not, between an organic phase and buffer at a given pH. One may read the half-life as the time in which the quantity being followed falls by half. By AUC(0-t) is commonly meant the area under the concentration-time curve up to a stated or last time point. Read a high AUC(0-t) as high exposure. For orientation: clearance means the rate of elimination divided by the concentration. Lower therefore signals inefficient removal. A word on the bioavailability: it is the share of a dose that reaches the circulation, judged against a reference dose that is usually intravenous.

For data set [1], the target named is Receptor-type tyrosine-protein kinase FLT3 (Homo sapiens) (UniProt P36888). The data set can be described thus: Inhibition of wild-type human partial length FLT3 (V592 to Y969 residues) expressed in bacterial expression system at 1 uM by Kinomescan method relative to control.
Data set [2] addresses Platelet-derived growth factor receptor alpha (Homo sapiens) (UniProt P16234). The data set can be described thus: Inhibition of wild-type human partial length PDGFRA (V575 to D1002 residues) expressed in mammalian expression system by Kinomescan method.
Data set [3] can be described thus: Protein binding in mouse plasma at […] after 5 hrs by LC-MS/MS analysis. It counts as ADME, cell-free. The settings on record: read-out: PPB (converted).
Data set [4] in a line: Apparent permeability of the compound across apical side to basolateral side in human Caco2 cells by LC-MS/MS analysis. It counts as ADME, cell-based. The settings on record: Caco-2.
The species named for data set [5] is Homo sapiens. The data set can be described thus: Antiproliferative activity against human GK5 cells after 48 hrs by CellTiter-Glo luminescence assay. The class given is functional, cell-based. For orientation: ATP-based viability assays read luminescence as a measure of living cells.
The target in a further data set is Cytochrome P450 3A4 (Homo sapiens, UniProt P08684).
The next data set has as its system P3HR-1. In words: Antiproliferative activity against human P3HR1 cells after 48 hrs by CellTiter-Glo luminescence assay. The class given is functional, cell-based.
Data set [6] deals with Phosphorylase b kinase gamma catalytic chain, liver/testis isoform (Homo sapiens) (UniProt P15735). In words: Inhibition of wild-type human partial length PHKG2 (M1 to W300 residues) expressed in bacterial expression system at 1 uM by Kinomescan method relative to control.
For data set [7], the target named is Platelet-derived growth factor receptor alpha (Homo sapiens) (UniProt P16234). The data set can be described thus: Inhibition of wild-type human partial length PDGFRA (V575 to D1002 residues) expressed in mammalian expression system at 1 uM by Kinomescan method relative to control.
Data set [8] in a line: Cmax in CD-1 mouse at 5 mg/kg, po administered via gavage as single dose by LC-MS/MS analysis. The settings on record: in vivo. It counts as ADME, organism-based. The arrangement: dose 5 mg/kg, route oral.
Data set [9] deals with Serine/threonine-protein kinase 17A (Homo sapiens) (UniProt Q9UEE5). In words: Inhibition of wild-type human partial length DRAK1 (R32 to E363 residues) expressed in bacterial expression system at 1 uM by Kinomescan method relative to control.
For data set [10], the target named is MAP kinase-interacting serine/threonine-protein kinase 1 (Homo sapiens, UniProt Q9BUB5).
Description: Inhibition of GST-tagged MNK1 (37 to 341 residues) (unknown origin) expressed in Escherichia coli BL21(DE3) using JH3 peptide as substrate preincubated for 10 mins followed by substrate and ATP addition measured after 60 mins
The target of data set [11] is Mast/stem cell growth factor receptor Kit (Homo sapiens) (UniProt P10721). In words: Inhibition of wild-type human partial length KIT (I571 to D952 residues) expressed in bacterial expression system at 1 uM by Kinomescan method relative to control.
The nature of data set [12]: Octanol-phosphate buffer partition coefficient, logD of compound at pH 7.4 by HPLC-UV analysis. The class given is physicochemical.
Data set [13] in a line: Half life in CD-1 mouse at 1 mg/kg, iv administered as single dose by LC-MS/MS analysis. It counts as ADME, organism-based. Particulars: in vivo.
Data set [14] has as its target Receptor-type tyrosine-protein kinase FLT3 (Homo sapiens) (UniProt P36888). In words: Inhibition of wild-type human partial length FLT3 (V592 to Y969 residues) expressed in bacterial expression system by Kinomescan method.
Data set [15] is filed under the species Homo sapiens. In words: Antiproliferative activity against human AHH1 cells after 48 hrs by CellTiter-Glo luminescence assay. It counts as functional, cell-based.
Data set [16] in a line: AUClast in CD-1 mouse at 5 mg/kg, po administered via gavage as single dose by LC-MS/MS analysis. The class given is ADME, organism-based. Further details: dose 5 mg/kg, time 0 - last, route oral. Particulars: in vivo.
Data set [17] in a line: in vitro. The settings on record: human, liver microsomes. In general terms: Microsomes from liver hold many membrane-bound enzymes, among them those of drug oxidation.
Description: Half life in human liver microsomes at 1 uM in presence of NADPH by LC-MS/MS analysis
The target of data set [18] is SRSF protein kinase 3 (Homo sapiens) (UniProt Q9UPE1). In words: Inhibition of human SRPK3 (P41 to P567 residues) expressed in bacterial expression system at 1 uM by KINOMEscan assay relative to control.
The nature of data set [19]: AUClast in CD-1 mouse at 1 mg/kg, iv administered as single dose by LC-MS/MS analysis. It counts as ADME, organism-based. Further details: dose 1 mg/kg, time 0 - last, route intravenous. Particulars: in vivo.
Data set [20] can be described thus: Half life in CD-1 mouse at 5 mg/kg, po administered via gavage as single dose by LC-MS/MS analysis. It counts as ADME, organism-based. The settings on record: in vivo.
The nature of data set [21]: Half life in dog liver microsomes at 1 uM in presence of NADPH by LC-MS/MS analysis. The class given is ADME, Canis lupus familiaris, microsome.
Data set [22] in a line: Initial concentration in CD-1 mouse at 1 mg/kg, iv administered as single dose by LC-MS/MS analysis. The class given is ADME, organism-based. Particulars: in vivo.
The nature of data set [23]: in vitro. The settings on record: mouse, liver microsomes.
Description: Half life in mouse liver microsomes at 1 uM in presence of NADPH by LC-MS/MS analysis
The nature of data set [24]: in vitro. The settings on record: rat, liver microsomes.
Description: Half life in rat liver microsomes at 1 uM in presence of NADPH by LC-MS/MS analysis
Data set [25] in a line: Clearance in CD-1 mouse at 1 mg/kg, iv administered as single dose by LC-MS/MS analysis. The settings on record: in vivo. It counts as ADME, organism-based.
The nature of data set [26]: Permeability of the compound by PAMPA. The class given is ADME. Particulars: read-out: permeability.
Data set [27] is described as follows: Thermodynamic solubility of the compound at pH 4 to 7.4 pION buffer after 18 hrs by UV spectrophotometric analysis. The class given is physicochemical. The settings on record: read-out: Therm_solubility.
The target in data set [28] is Platelet-derived growth factor receptor beta (Homo sapiens) (UniProt P09619). In words: Inhibition of wild-type human partial length PDGFRB (V582 to Y1009 residues) expressed in bacterial expression system at 1 uM by Kinomescan method relative to control.
A short description of data set [29]: Oral bioavailability in CD-1 mouse at 5 mg/kg administered via gavage as single dose by LC-MS/MS analysis. Particulars: in vivo. The class given is ADME, organism-based.
Data set [30] in a line: Protein binding in human plasma at […] after 5 hrs by LC-MS/MS analysis. The class given is ADME, cell-free. The settings on record: read-out: PPB (converted).
Data set [31] has as its target MAP kinase-interacting serine/threonine-protein kinase 2 (Homo sapiens, UniProt Q9HBH9).
Description: Inhibition of GST-tagged MNK2 (72 to 385 residues) (unknown origin) expressed in Escherichia coli BL21(DE3) using JH3 peptide as substrate preincubated for 10 mins followed by substrate and ATP addition measured after 60 mins
Another data set deals with Cytochrome P450 2D6 (Homo sapiens, UniProt P10635). The data set can be described thus: Inhibition of CYP2D6 in human liver microsomes using dextromethorphan as substrate preincubated for 5 mins followed by NADPH addition by LC-MS/MS analysis. The class given is ADME.
Another data set concerns DOHH-2. The data set can be described thus: Antiproliferative activity against human DOHH2 cells after 48 hrs by CellTiter-Glo luminescence assay. It counts as functional, cell-based.
Data set [32] has as its target MAP kinase-interacting serine/threonine-protein kinase 1/2 (Homo sapiens, UniProt Q9HBH9+Q9BUB5). In words: Inhibition of MNK1/2 in human HeLa cells assessed as decrease in eIF4E phosphorylation at Ser209 after 2 hrs by AlphaScreen assay. It counts as cell-based. (In general: Bead proximity is the source of the signal in Alpha formats.)
The target of data set [33] is Dual specificity mitogen-activated protein kinase kinase 1 (Homo sapiens) (UniProt Q02750). In words: Inhibition of human MEK1 (M1 to V393 residues) expressed in mammalian expression system at 1 uM by KINOMEscan assay relative to control.
The test system of data set [34] is Tyrosine-protein kinase ABL1 (Homo sapiens), P00519 [E255K]. In words: Inhibition of human ABL1 E255K mutant (S229 to K512 residues) expressed in mammalian expression system at 1 uM by KINOMEscan assay relative to control.
In data set [35] the target is Proto-oncogene tyrosine-protein kinase receptor Ret (Homo sapiens) (UniProt P07949). The data set can be described thus: Inhibition of human RET (E713 to D1014 residues) expressed in bacterial expression system at 1 uM by KINOMEscan assay relative to control.
Data set [36] concerns the target Tyrosine-protein kinase ABL1 (Homo sapiens) (UniProt P00519). In words: Inhibition of human ABL1 (S229 to K512 residues) expressed in mammalian expression system at 1 uM by KINOMEscan assay relative to control.
For data set [37], the target named is Dual specificity mitogen-activated protein kinase kinase 2 (Homo sapiens) (UniProt P36507). In words: Inhibition of human MEK2 (M1 to V400 residues) expressed in mammalian expression system at 1 uM by KINOMEscan assay relative to control.
The target of data set [38] is Dual specificity mitogen-activated protein kinase kinase; MEK1/2 (Homo sapiens) (UniProt P36507+Q02750). The data set can be described thus: Inhibition of MEK (unknown origin) at 1 uM by KINOMEscan assay relative to control. It counts as protein assay.
In another data set the test system is K562. The data set can be described thus: Antitumor activity against human K562 cells overexpressing GFP-fussed full length mouse eIF4E xenografted in SCID mouse assessed as tumor growth inhibition at 2.5 mg/kg, po qd administered via gavage for 5 days on 2 days off per cycle for 2 cycles relative to control. It counts as functional. The settings on record: read-out: TGI.

Chain of Receptor-type tyrosine-protein kinase FLT3 (Homo sapiens) (P36888 whole entry, the tested form may be a part): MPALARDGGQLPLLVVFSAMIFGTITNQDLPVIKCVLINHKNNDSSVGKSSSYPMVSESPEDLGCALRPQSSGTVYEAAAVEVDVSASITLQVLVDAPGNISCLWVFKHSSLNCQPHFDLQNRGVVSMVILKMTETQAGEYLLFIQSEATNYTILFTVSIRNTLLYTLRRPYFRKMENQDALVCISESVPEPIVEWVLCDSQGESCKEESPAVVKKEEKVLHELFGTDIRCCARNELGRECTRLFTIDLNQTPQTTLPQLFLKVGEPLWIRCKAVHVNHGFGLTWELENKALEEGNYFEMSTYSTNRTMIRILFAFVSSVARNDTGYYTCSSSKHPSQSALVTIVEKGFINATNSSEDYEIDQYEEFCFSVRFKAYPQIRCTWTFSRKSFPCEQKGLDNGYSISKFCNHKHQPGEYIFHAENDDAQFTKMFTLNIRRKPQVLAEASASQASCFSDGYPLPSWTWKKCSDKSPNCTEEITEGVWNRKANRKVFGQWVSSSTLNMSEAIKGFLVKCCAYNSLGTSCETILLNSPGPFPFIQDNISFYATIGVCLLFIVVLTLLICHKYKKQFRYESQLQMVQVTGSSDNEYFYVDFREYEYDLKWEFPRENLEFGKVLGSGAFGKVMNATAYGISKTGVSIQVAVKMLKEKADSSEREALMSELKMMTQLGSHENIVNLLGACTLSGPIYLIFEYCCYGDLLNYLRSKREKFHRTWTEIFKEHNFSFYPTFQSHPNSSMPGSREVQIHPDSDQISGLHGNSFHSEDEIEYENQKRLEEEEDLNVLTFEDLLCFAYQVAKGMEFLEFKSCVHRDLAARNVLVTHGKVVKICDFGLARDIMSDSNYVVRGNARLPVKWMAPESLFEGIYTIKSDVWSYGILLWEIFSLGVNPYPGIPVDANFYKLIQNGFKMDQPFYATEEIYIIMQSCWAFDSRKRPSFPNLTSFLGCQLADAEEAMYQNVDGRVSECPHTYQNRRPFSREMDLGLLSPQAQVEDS
Chain of Platelet-derived growth factor receptor alpha (Homo sapiens) (P16234 whole entry, the tested form may be a part): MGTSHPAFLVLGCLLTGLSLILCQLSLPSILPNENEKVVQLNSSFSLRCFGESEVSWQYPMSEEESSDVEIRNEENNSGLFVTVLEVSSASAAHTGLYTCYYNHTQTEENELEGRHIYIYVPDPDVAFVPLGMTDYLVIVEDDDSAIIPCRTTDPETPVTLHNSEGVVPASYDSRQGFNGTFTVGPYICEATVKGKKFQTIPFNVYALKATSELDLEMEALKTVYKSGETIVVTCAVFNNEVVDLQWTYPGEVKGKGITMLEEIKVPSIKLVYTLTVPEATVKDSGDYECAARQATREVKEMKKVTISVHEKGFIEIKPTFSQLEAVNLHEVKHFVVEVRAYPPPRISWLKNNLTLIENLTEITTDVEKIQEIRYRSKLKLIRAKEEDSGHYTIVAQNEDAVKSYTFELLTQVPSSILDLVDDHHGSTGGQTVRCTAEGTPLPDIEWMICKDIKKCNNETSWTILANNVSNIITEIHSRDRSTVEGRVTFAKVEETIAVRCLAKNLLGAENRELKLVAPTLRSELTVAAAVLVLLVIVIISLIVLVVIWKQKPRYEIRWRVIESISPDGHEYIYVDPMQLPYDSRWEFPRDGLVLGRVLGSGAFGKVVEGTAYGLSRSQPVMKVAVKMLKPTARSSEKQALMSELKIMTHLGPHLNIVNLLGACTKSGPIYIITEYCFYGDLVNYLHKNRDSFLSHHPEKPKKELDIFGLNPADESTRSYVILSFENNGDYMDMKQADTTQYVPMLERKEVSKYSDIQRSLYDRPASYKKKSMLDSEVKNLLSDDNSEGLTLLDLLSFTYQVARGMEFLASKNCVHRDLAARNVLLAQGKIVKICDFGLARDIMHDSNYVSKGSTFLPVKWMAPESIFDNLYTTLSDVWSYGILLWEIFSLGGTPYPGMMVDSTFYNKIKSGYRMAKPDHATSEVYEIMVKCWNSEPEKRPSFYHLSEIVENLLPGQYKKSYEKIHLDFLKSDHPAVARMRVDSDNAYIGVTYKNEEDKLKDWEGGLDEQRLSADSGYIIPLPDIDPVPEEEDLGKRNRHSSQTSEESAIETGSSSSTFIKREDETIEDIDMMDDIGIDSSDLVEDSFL
Chain of MAP kinase-interacting serine/threonine-protein kinase 2 (Q9HBH9 whole entry): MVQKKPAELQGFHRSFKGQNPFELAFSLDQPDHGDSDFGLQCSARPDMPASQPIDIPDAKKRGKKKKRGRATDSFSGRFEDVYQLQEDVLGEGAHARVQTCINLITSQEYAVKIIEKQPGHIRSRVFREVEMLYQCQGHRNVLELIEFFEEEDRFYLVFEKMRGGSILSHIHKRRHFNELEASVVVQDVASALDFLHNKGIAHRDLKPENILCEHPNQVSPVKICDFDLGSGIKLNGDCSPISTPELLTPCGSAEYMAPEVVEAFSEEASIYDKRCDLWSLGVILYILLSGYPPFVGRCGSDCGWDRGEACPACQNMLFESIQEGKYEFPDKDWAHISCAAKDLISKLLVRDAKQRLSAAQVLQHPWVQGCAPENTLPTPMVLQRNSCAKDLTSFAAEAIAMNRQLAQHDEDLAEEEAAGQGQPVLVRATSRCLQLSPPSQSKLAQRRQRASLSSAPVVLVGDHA
Chain of Dual specificity mitogen-activated protein kinase kinase 2 (Homo sapiens) (P36507 whole entry, the tested form may be a part): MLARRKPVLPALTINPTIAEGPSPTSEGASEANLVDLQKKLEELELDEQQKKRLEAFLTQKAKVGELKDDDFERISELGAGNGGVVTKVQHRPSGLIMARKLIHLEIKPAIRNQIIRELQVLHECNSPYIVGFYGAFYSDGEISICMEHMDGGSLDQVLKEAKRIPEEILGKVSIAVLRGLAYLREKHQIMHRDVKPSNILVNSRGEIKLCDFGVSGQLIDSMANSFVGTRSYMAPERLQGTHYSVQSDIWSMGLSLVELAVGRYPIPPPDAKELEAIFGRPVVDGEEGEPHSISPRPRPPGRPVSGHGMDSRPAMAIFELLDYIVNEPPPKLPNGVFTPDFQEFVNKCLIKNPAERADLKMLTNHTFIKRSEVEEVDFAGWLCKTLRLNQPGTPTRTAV
Chain of Dual specificity mitogen-activated protein kinase kinase; MEK1/2 (Homo sapiens) (P36507 whole entry, looked up): as the sequence (P36507 whole entry, the tested form may be a part) above
Chain of Dual specificity mitogen-activated protein kinase kinase; MEK1/2 (Homo sapiens) (Q02750 whole entry, looked up): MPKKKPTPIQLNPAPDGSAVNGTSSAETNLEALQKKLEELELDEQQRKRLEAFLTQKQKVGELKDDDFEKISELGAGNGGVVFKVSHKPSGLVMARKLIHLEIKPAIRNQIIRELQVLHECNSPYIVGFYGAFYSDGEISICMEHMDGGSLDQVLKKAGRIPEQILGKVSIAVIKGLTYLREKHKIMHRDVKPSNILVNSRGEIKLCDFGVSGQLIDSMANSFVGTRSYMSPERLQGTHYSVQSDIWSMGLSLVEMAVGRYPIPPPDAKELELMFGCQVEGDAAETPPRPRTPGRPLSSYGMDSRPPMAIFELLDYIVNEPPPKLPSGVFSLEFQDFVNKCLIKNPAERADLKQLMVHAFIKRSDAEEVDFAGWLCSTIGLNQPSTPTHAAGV
Chain of Mast/stem cell growth factor receptor Kit (Homo sapiens) (P10721 whole entry, the tested form may be a part): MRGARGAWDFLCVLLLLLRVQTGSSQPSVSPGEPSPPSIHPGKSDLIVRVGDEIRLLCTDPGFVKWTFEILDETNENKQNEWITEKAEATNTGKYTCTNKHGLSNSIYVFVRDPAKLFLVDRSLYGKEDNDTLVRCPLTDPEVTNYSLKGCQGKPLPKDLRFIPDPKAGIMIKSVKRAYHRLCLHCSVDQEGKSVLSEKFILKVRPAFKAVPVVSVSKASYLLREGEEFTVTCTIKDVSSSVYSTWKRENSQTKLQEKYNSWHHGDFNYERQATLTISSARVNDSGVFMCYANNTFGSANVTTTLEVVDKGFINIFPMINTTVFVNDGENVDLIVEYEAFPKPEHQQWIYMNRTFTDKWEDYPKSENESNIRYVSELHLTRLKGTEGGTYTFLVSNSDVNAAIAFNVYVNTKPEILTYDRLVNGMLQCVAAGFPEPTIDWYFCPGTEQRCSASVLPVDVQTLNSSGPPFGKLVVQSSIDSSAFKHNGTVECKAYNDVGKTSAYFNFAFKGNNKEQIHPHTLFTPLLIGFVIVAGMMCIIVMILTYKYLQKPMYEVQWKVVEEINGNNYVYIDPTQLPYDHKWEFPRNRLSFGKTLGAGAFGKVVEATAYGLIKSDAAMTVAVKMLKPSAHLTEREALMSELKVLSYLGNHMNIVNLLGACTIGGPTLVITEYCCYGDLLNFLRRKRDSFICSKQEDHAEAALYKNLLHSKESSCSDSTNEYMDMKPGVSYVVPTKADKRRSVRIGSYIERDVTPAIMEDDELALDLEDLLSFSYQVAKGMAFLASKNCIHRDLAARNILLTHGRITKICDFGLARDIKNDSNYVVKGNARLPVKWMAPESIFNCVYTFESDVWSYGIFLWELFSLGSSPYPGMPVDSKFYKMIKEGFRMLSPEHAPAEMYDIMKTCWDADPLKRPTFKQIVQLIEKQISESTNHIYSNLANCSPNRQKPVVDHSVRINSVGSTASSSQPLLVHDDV
Description for Cytochrome P450 3A4: Inhibition of CYP3A4 in human liver microsomes using midazolam as substrate preincubated for 5 mins followed by NADPH addition measured after 5 mins by LC-MS/MS analysis

In the case of `N#Cc1ccc(-c2cnc3ccc(-c4ccc(C(=O)N5CCOCC5)cc4)nn23)cc1`, the inhibition in data set [1], in data set [6], in data set [7], in data set [9], in [11] and in [18] was > 65% in each case. Further, in [28], the inhibition was > 65%. Besides, the INH was determined as 0.25 µM in [2] and 0.88 µM in [14]. Further, the fraction unbound at 5 h in [3] is 0.055; in data set [30] it was 0.001. The Papp A→B in [4] turned out to be 385 nm/s. The result in the data set listed under Homo sapiens [5], in the data set on P3HR-1, in the data set listed under Homo sapiens [15] and in the data set on DOHH-2 was Active. In addition, the IC50 is > 20 µM against Cytochrome P450 3A4; 0.023 µM in data set [10]; 0.041 µM in [31]; > 20 µM at Cytochrome P450 2D6; 0.421 µM in data set [32]. This compound also yielded a Cmax in data set [8] of 4.41 µg/mL. The compound also gave a logD in data set [12] of 2.1. The half-life is 2.32 h in data set [13] and 2.14 h in [20]. In addition, the AUC(0-t) in data set [16] was determined as 24.1 µg·h/mL; in data set [19], 6.12 µg·h/mL. The half-life at 1 µM in “in vitro [17]” is 0.883 h; in data set [21], > 1 h; in “in vitro [23]”, > 1 h; in “in vitro [24]”, > 1 h. Besides, the C0 in [22] is 2.94 µg/mL. Moreover, the clearance in [25] is 0.16 L/h/kg. The Papp in data set [26] is 300 nm/s. In [27], the solubility thermodynamic at 18 h was found to be 1.8 µg/mL (≈ 4.4 µM). This compound came in with a bioavailability in [29] of 79%.
In the case of `Nc1ncnc2[nH]nc(Nc3ccc(F)cc3)c12`, the inhibition in data set [33], in data set [34], in data set [35], in [36], in [37] and in [38] was > 99% throughout.
With `Cc1nc(Nc2ncc(C(=O)Nc3c(C)cccc3Cl)s2)cc(N2CCN(CCO)CC2)n1` [DASATINIB], the inhibition in vivo at 2.5 mg/kg in the data set with K562 worked out at 88%.
